# ChEMBL document CHEMBL4411284, “Discovery of novel quaternary ammonium compounds based on quinuclidine-3-ol as new potential antimicrobial candidates” (Eur J Med Chem, 2019)
# Calls of active or inactive are those of the source. The rule behind the calls is not given here.
# How the values were obtained:
# [1] = system: Pseudomonas aeruginosa; test: Bactericidal activity against Pseudomonas aeruginosa ATCC 27853 preincubated for 24 to 48 hrs followed by replating on MHA plates and measured after 18 hrs by broth microdilution assay; type: functional
# [2] = system: Escherichia coli; test: Antimicrobial activity against Escherichia coli clinical isolate after 24 to 48 hrs by broth microdilution assay; type: functional
# [3] = system: Streptococcus pyogenes; test: Antimicrobial activity against Streptococcus pyogenes ATCC 19615 after 24 to 48 hrs by broth microdilution assay; type: functional
# [4] = system: Klebsiella pneumoniae; test: Antimicrobial activity against Klebsiella pneumoniae ATCC 13883 after 24 to 48 hrs by broth microdilution assay; type: functional
# [5] = system: Acinetobacter baumannii; test: Bactericidal activity against Acinetobacter baumannii ATCC 19606 preincubated for 24 to 48 hrs followed by replating on MHA plates and measured after 18 hrs by broth microdilution assay; type: functional; details: ATCC 19606 = CIP 70.34 = JCM 6841
# [6] = system: Candida albicans; test: Antifungal activity against Candida albicans ATCC 90029 after 24 to 48 hrs by broth microdilution assay; type: functional
# [7] = system: Pseudomonas aeruginosa; test: Antimicrobial activity against Pseudomonas aeruginosa ATCC 27853 after 24 to 48 hrs by broth microdilution assay; type: functional
# [8] = system: Escherichia coli; test: Antimicrobial activity against Escherichia coli ATCC 25922 after 24 to 48 hrs by broth microdilution assay; type: functional
# [9] = system: Klebsiella pneumoniae; test: Bactericidal activity against Klebsiella pneumoniae ATCC 13883 preincubated for 24 to 48 hrs followed by replating on MHA plates and measured after 18 hrs by broth microdilution assay; type: functional
# [10] = system: Staphylococcus aureus; test: Antimicrobial activity against methicillin-resistant Staphylococcus aureus clinical isolate after 24 to 48 hrs by broth microdilution assay; type: functional
# [11] = system: TERT-RPE1; test: Cytotoxicity against human RPE1 cells assessed as reduction in cell viability after 48 hrs by MTS assay; type: cell-based; details: RPE-1, 48 h
# [12] = system: Salmonella typhimurium; test: Bactericidal activity against Salmonella typhimurium WDCM 00031 preincubated for 24 to 48 hrs followed by replating on MHA plates and measured after 18 hrs by broth microdilution assay; type: functional, Salmonella enterica subsp. enterica serovar Typhimurium; details: Salmonella enterica
# [13] = system: Staphylococcus aureus; test: Bactericidal activity against methicillin-resistant Staphylococcus aureus clinical isolate preincubated for 24 to 48 hrs followed by replating on MHA plates and measured after 18 hrs by broth microdilution assay; type: functional
# [14] = system: Streptococcus pyogenes; test: Bactericidal activity against Streptococcus pyogenes ATCC 19615 preincubated for 24 to 48 hrs followed by replating on MHA plates and measured after 18 hrs by broth microdilution assay; type: functional
# [15] = system: Enterococcus faecalis; test: Antimicrobial activity against Enterococcus faecalis ATCC 29212 after 24 to 48 hrs by broth microdilution assay; type: functional
# [16] = system: Klebsiella pneumoniae; test: Bactericidal activity against Klebsiella pneumoniae clinical isolate preincubated for 24 to 48 hrs followed by replating on MHA plates and measured after 18 hrs by broth microdilution assay; type: functional
# [17] = system: HEK293; test: Cytotoxicity against HEK293 cells assessed as reduction in cell viability after 48 hrs by MTS assay; type: cell-based; details: Homo sapiens, HEK293, 48 h
# [18] = system: Salmonella typhimurium; test: Antimicrobial activity against Salmonella typhimurium WDCM 00031 after 24 to 48 hrs by broth microdilution assay; type: functional, Salmonella enterica subsp. enterica serovar Typhimurium; details: Salmonella enterica
# [19] = system: Staphylococcus aureus; test: Antimicrobial activity against Staphylococcus aureus ATCC 29213 after 24 to 48 hrs by broth microdilution assay; type: functional
# [20] = system: Listeria monocytogenes; test: Bactericidal activity against Listeria monocytogenes ATCC 19111 (1/2a) preincubated for 24 to 48 hrs followed by replating on MHA plates and measured after 18 hrs by broth microdilution assay; type: functional
# [21] = system: Acinetobacter baumannii; test: Antimicrobial activity against Acinetobacter baumannii ATCC 19606 after 24 to 48 hrs by broth microdilution assay; type: functional; details: ATCC 19606 = CIP 70.34 = JCM 6841
# [22] = system: Klebsiella pneumoniae; test: Antimicrobial activity against Klebsiella pneumoniae clinical isolate after 24 to 48 hrs by broth microdilution assay; type: functional
# [23] = system: Escherichia coli; test: Bactericidal activity against Escherichia coli clinical isolate preincubated for 24 to 48 hrs followed by replating on MHA plates and measured after 18 hrs by broth microdilution assay; type: functional
# [24] = system: Escherichia coli; test: Bactericidal activity against Escherichia coli ATCC 25922 preincubated for 24 to 48 hrs followed by replating on MHA plates and measured after 18 hrs by broth microdilution assay; type: functional
# [25] = system: Penicillium citrinum; test: Antifungal activity against Penicillium citrinum after 24 to 48 hrs by broth microdilution assay; type: functional
# [26] = system: Acinetobacter baumannii; test: Antimicrobial activity against Acinetobacter baumannii clinical isolate after 24 to 48 hrs by broth microdilution assay; type: functional
# [27] = system: Acinetobacter baumannii; test: Bactericidal activity against Acinetobacter baumannii clinical isolate preincubated for 24 to 48 hrs followed by replating on MHA plates and measured after 18 hrs by broth microdilution assay; type: functional
# [28] = system: Enterococcus faecalis; test: Bactericidal activity against Enterococcus faecalis ATCC 29212 preincubated for 24 to 48 hrs followed by replating on MHA plates and measured after 18 hrs by broth microdilution assay; type: functional
# [29] = system: Aspergillus niger; test: Antifungal activity against Aspergillus niger after 24 to 48 hrs by broth microdilution assay; type: functional
# [30] = system: Staphylococcus aureus; test: Bactericidal activity against Staphylococcus aureus ATCC 29213 preincubated for 24 to 48 hrs followed by replating on MHA plates and measured after 18 hrs by broth microdilution assay; type: functional
# [31] = system: Listeria monocytogenes; test: Antimicrobial activity against Listeria monocytogenes ATCC 19111 (1/2a) after 24 to 48 hrs by broth microdilution assay; type: functional
# [32] = system: Staphylococcus aureus; test: Induction of morphological changes in Staphylococcus aureus ATCC 29213 assessed as cell wall damage at 8 times MIC after 1 hr by atomic force microscopic analysis; type: functional, organism-based
# [33] = system: Staphylococcus aureus; test: Growth inhibition in Staphylococcus aureus ATCC 29213 at 1/4 to 1/2 times MIC after 6 hrs; type: functional, organism-based
# [34] = system: Staphylococcus aureus; test: Induction of morphological changes in Staphylococcus aureus ATCC 29213 assessed as cell wall damage at MIC after 1 hr by atomic force microscopic analysis; type: functional, organism-based
# [35] = system: Staphylococcus aureus; test: Induction of morphological changes in Staphylococcus aureus ATCC 29213 assessed as cell wall damage at MIC after 3 hrs by atomic force microscopic analysis; type: functional, organism-based
# [36] = system: Staphylococcus aureus; test: Antimicrobial activity against Staphylococcus aureus ATCC 29213 assessed as bacterial membrane disruption by measuring dead cells at 4 times MIC after 15 mins by thiazole orange/propidium iodide staining based flow cytometric analysis (reference value: 3.22%); type: functional
# [37] = system: Staphylococcus aureus; test: Antimicrobial activity against Staphylococcus aureus ATCC 29213 assessed as bacterial membrane disruption by measuring dead cells at MIC after 15 mins by thiazole orange/propidium iodide staining based flow cytometric analysis (reference value: 3.22%); type: functional
# [38] = system: Staphylococcus aureus; test: Antimicrobial activity against Staphylococcus aureus ATCC 29213 assessed as live cells at MIC by fluorescence microscopic analysis; type: functional, organism-based
# [39] = system: Staphylococcus aureus; test: Antimicrobial activity against Staphylococcus aureus ATCC 29213 assessed as bacterial membrane disruption by measuring live cells at MIC after 15 mins by thiazole orange/propidium iodide staining based flow cytometric analysis (reference value: 88.47%); type: functional
# [40] = system: Staphylococcus aureus; test: Induction of membrane lysis in Staphylococcus aureus ATCC 29213 at 4 to 8 times MIC by spectroflurometric analysis based propidium iodide uptake assay; type: functional, organism-based
# [41] = system: Staphylococcus aureus; test: Induction of membrane lysis in Staphylococcus aureus ATCC 29213 at 0.5 to 1 times MIC by spectroflurometric analysis based propidium iodide uptake assay; type: functional, organism-based
# [42] = system: Staphylococcus aureus; test: Antimicrobial activity against Staphylococcus aureus ATCC 29213 assessed as bacterial membrane disruption by measuring live cells at 4 times MIC after 15 mins by thiazole orange/propidium iodide staining based flow cytometric analysis (reference value: 88.47%); type: functional
# [43] = system: Staphylococcus aureus; test: Antimicrobial activity against Staphylococcus aureus ATCC 29213 assessed as dead cells at 4 times MIC by fluorescence microscopic analysis; type: functional, organism-based
# [44] = system: Staphylococcus aureus; test: Antibiofilm activity against Staphylococcus aureus ATCC 29213 at 1/32 to 1/2 times MIC after 3 days by crystal violet staining based assay relative to control; type: functional
# [45] = system: Staphylococcus aureus; test: Antibiofilm activity against Staphylococcus aureus ATCC 29213 after 3 days by crystal violet staining based assay; type: functional, organism-based
smiles,measurement,setting,value
CCCCCCCCCCCC[N+]12CCC(CC1)C(O)C2.[Br-] (configuration not stated),MBC,[1],500 µg/mL
same,MIC,[2],62.5 µg/mL
same,MIC,[3],0.48 µg/mL
same,MIC,[4],125 µg/mL
same,MBC,[5],250 µg/mL
same,MIC50,[6],1.95 µg/mL
same,MIC90,[6],3.9 µg/mL
same,MIC,[7],250 µg/mL
same,MIC,[8],62.5 µg/mL
same,MBC,[9],125 µg/mL
same,MIC,[10],62.5 µg/mL
same,IC50,[11],8 µg/mL
same,MBC,[12],250 µg/mL
same,MBC,[13],62.5 µg/mL
same,MBC,[14],0.48 µg/mL
same,MIC,[15],15.6 µg/mL
same,MBC,[16],250 µg/mL
same,IC50,[17],1 µg/mL
same,MIC,[18],250 µg/mL
same,MIC,[19],15.6 µg/mL
same,MBC,[20],31.2 µg/mL
same,MIC,[21],125 µg/mL
same,MIC,[22],250 µg/mL
same,MBC,[23],62.5 µg/mL
same,MBC,[24],62.5 µg/mL
same,MIC50,[25],31.2 µg/mL
same,MIC90,[25],62.5 µg/mL
same,MIC,[26],62.5 µg/mL
same,MBC,[27],125 µg/mL
same,MBC,[28],15.6 µg/mL
same,MIC50,[29],7.8 µg/mL
same,MIC90,[29],15.6 µg/mL
same,MBC,[30],15.6 µg/mL
same,MIC,[31],31.2 µg/mL
CCCCCCCCCCCCCC[N+]12CCC(CC1)C(O)C2.[Br-] (configuration not stated),MBC,[1],31.2 µg/mL
same,MIC,[2],15.6 µg/mL
same,Activity,[32],Active
same,growth inhibition (GI),[33],Active
same,MIC,[3],0.06 µg/mL
same,Activity,[34],inactive
same,MIC,[4],15.6 µg/mL
same,MBC,[5],15.6 µg/mL
same,MIC50,[6],0.06 µg/mL
same,MIC90,[6],0.12 µg/mL
same,Activity,[35],Active
same,MIC,[7],31.2 µg/mL
same,Activity,[36],55.69%
same,MIC,[8],3.9 µg/mL
same,Activity,[37],14.54%
same,MBC,[9],15.6 µg/mL
same,MIC,[10],3.9 µg/mL
same,IC50,[11],15 µg/mL
same,MBC,[12],31.2 µg/mL
same,MBC,[13],3.9 µg/mL
same,MBC,[14],0.06 µg/mL
same,Activity,[38],Active
same,MIC,[15],0.97 µg/mL
same,Activity,[39],66.27%
same,MBC,[16],15.6 µg/mL
same,IC50,[17],1 µg/mL
same,MIC,[18],31.2 µg/mL
same,MIC,[19],0.97 µg/mL
same,MBC,[20],3.9 µg/mL
same,MIC,[21],15.6 µg/mL
same,MIC,[22],15.6 µg/mL
same,Activity,[40],Active
same,MBC,[23],15.6 µg/mL
same,MBC,[24],7.8 µg/mL
same,MIC50,[25],1.95 µg/mL
same,MIC90,[25],3.9 µg/mL
same,Activity,[41],inactive
same,MIC,[26],7.8 µg/mL
same,MBC,[27],15.6 µg/mL
same,MBC,[28],0.97 µg/mL
same,Activity,[42],23.66%
same,MIC50,[29],0.48 µg/mL
same,MIC90,[29],0.97 µg/mL
same,Activity,[43],Active
same,Activity,[44],2.3 - 84%
same,MBC,[30],0.97 µg/mL
same,MIC,[31],3.9 µg/mL
same,Activity,[45],Dose-dependent effect
